Values quoted from earlier work as cited in US7705000B2, “Oral suspension comprising meloxicam” (Janssen Pharmaceutica N.V., priority 2004, dated 2010).

Details: at a pH of 4

Cc1cnc(NC(=O)C2=C(O)c3ccccc3S(=O)(=O)N2C)s1 [meloxicam, 4-hydroxy-2-methyl-N-(5-methyl-2-thiazolyl)-2H-1,2-benzo-thiazine-3-carboxamide-1,1-dioxide]
solubility of meloxicam: 0.5 µg/mL
